Experimental data as given in patent publication EP0545195B1, “Indolopyrrolocarbazole derivatives” (BANYU PHARMACEUTICAL CO., LTD., priority 1991, dated 1993).

What was measured:
[1] = tested on: mouse leukemia cell P388; experiment: Proliferation inhibition activity against mouse leukemia cell (Thiazoyl Blue assay); type: cell-based; settings: P388 cells, 24 hours culture with test compound, absorbance at 550 nm, read-out: 50% inhibitory concentration (IC₅₀)
Procedure: (2) Proliferation inhibition activity against mouse leukemia cell
100 µl portions of a cell culturing medium (10% fetal bovine serum-containing-RPMI-1640 medium) containing 3x10³ mouse leukemia cell (P388) were put in a 96-hole microplate, the cells were cultured under 5% CO₂ at 37°C for 24 hours, 10 µl each of test solutions containing test compounds respectively were added respectively, and the cells were further cultured under 5% CO₂ at 37°C for 24 hours. 10 µl portions of 0.5% Thiazoyl Blue were added to the culture broths, and incubation was carried out under 5% CO₂ at 37°C for 2 hours to carry out enzymatic reaction. 20% sodium dodecyl sulfate (SDS) was added to discontinue the reaction, incubation was further carried out at 37°C for 4 hours to dissolve the formed dye, and absorbance at 550 nm was measured and compared with the control group.

[2] = tested on: mouse tumor (P388); experiment: Therapeutic effect against mouse tumor (P388); type: in vivo; settings: P388, 10⁶ cancer cells inoculated i.p.
Excerpt: (1) Therapeutic effect against mouse tumor (P388)

[3] = dose 1 mg/kg/injection i.p. once a day from 1st to 10th day
[4] = dose 3 mg/kg/injection i.p. once a day from 1st to 10th day
[5] = dose 10 mg/kg/injection i.p. once a day from 1st to 10th day
[6] = dose 30 mg/kg/injection i.p. once a day from 1st to 10th day
[7] = dose 100 mg/kg/injection i.p. once a day from 1st to 10th day

Compound	IC50 [1] [nM]	further results
O=C(NN1C(=O)c2c(c3c4cccc(O)c4n([C@@H]4O[C@H](CO)[C@@H](O)[C@H](O)[C@H]4O)c3c3[nH]c4c(O)cccc4c23)C1=O)c1ccccn1 [Example 35]	170	
COC(=O)NN1C(=O)c2c(c3c4cccc(O)c4n([C@@H]4O[C@H](CO)[C@@H](O)[C@H](O)[C@H]4O)c3c3[nH]c4c(O)cccc4c23)C1=O [Example 30]	3	
NNC(=O)NN1C(=O)c2c(c3c4cccc(O)c4n([C@@H]4O[C@H](CO)[C@@H](O)[C@H](O)[C@H]4O)c3c3[nH]c4c(O)cccc4c23)C1=O [Example 22]	110	
O=C(O)CNN1C(=O)c2c(c3c4cccc(O)c4n([C@@H]4O[C@H](CO)[C@@H](O)[C@H](O)[C@H]4O)c3c3[nH]c4c(O)cccc4c23)C1=O [Example 8]	300	
O=C1c2c(c3c4cccc(O)c4n([C@@H]4O[C@H](CO)[C@@H](O)[C@H](O)[C@H]4O)c3c3[nH]c4c(O)cccc4c23)C(=O)N1NCCO [Example 36]	2	
NC(=S)NN1C(=O)c2c(c3c4cccc(O)c4n([C@@H]4O[C@H](CO)[C@@H](O)[C@H](O)[C@H]4O)c3c3[nH]c4c(O)cccc4c23)C1=O [Example 10]	460	
O=C1c2c(c3c4cccc(O)c4n([C@@H]4O[C@H](CO)[C@@H](O)[C@H](O)[C@H]4O)c3c3[nH]c4c(O)cccc4c23)C(=O)N1NC1=NCCN1 [Example 25]	48	
O=C1c2c(c3c4cccc(O)c4n([C@@H]4O[C@H](CO)[C@@H](O)[C@H](O)[C@H]4O)c3c3[nH]c4c(O)cccc4c23)C(=O)N1NCc1cccc(O)c1 [Example 23]	< 25	
CS(=O)(=O)NN1C(=O)c2c(c3c4cccc(O)c4n([C@@H]4O[C@H](CO)[C@@H](O)[C@H](O)[C@H]4O)c3c3[nH]c4c(O)cccc4c23)C1=O [Example 11]	< 26	
C=CCNN1C(=O)c2c(c3c4cccc(O)c4n([C@@H]4O[C@H](CO)[C@@H](O)[C@H](O)[C@H]4O)c3c3[nH]c4c(O)cccc4c23)C1=O [Example 28]	< 29	
O=C1c2c(c3c4cccc(O)c4n([C@@H]4O[C@H](CO)[C@@H](O)[C@H](O)[C@H]4O)c3c3[nH]c4c(O)cccc4c23)C(=O)N1N1CCCC1 [Example 37]	95	
O=CNN1C(=O)c2c(c3c4cccc(O)c4n([C@@H]4O[C@H](CO)[C@@H](O)[C@H](O)[C@H]4O)c3c3[nH]c4c(O)cccc4c23)C1=O [Example 5]	280	MST (mean survival number of days) [2, 3]: 16.8 ± 0.84 days; T/C (%) (MST of treatment group/MST of control x 100) [2, 3]: 137%; MST (mean survival number of days) [2, 4]: 17.8 ± 1.92 days; T/C (%) (MST of treatment group/MST of control x 100) [2, 4]: 145%; MST (mean survival number of days) [2, 5]: >26.2 ± 10.18 days; T/C (%) (MST of treatment group/MST of control x 100) [2, 5]: >213%; MST (mean survival number of days) [2, 6]: >23.4 ± 9.74 days; T/C (%) (MST of treatment group/MST of control x 100) [2, 6]: >190%; MST (mean survival number of days) [2, 7]: >36.4 ± 8.05 days; T/C (%) (MST of treatment group/MST of control x 100) [2, 7]: >296%
O=C(O)CCC=NN1C(=O)c2c(c3c4cccc(O)c4n([C@@H]4O[C@H](CO)[C@@H](O)[C@H](O)[C@H]4O)c3c3[nH]c4c(O)cccc4c23)C1=O [Example 3]	65	
CC(=O)NN1C(=O)c2c(c3c4cccc(O)c4n([C@@H]4O[C@H](CO)[C@@H](O)[C@H](O)[C@H]4O)c3c3[nH]c4c(O)cccc4c23)C1=O [Example 6]	59	
N#CCCNN1C(=O)c2c(c3c4cccc(O)c4n([C@@H]4O[C@H](CO)[C@@H](O)[C@H](O)[C@H]4O)c3c3[nH]c4c(O)cccc4c23)C1=O [Example 24]	1	
O=C1c2c(c3c4cccc(O)c4n([C@@H]4O[C@H](CO)[C@@H](O)[C@H](O)[C@H]4O)c3c3[nH]c4c(O)cccc4c23)C(=O)N1Nc1ccccn1 [Example 15]	310	
CNN1C(=O)c2c(c3c4cccc(O)c4n([C@@H]4O[C@H](CO)[C@@H](O)[C@H](O)[C@H]4O)c3c3[nH]c4c(O)cccc4c23)C1=O [Example 7]	91	
NN1C(=O)c2c(c3c4cccc(O)c4n([C@@H]4O[C@H](CO)[C@@H](O)[C@H](O)[C@H]4O)c3c3[nH]c4c(O)cccc4c23)C1=O [Example 1]	< 30	
O=C(O)C=NN1C(=O)c2c(c3c4cccc(O)c4n([C@@H]4O[C@H](CO)[C@@H](O)[C@H](O)[C@H]4O)c3c3[nH]c4c(O)cccc4c23)C1=O [Example 2]	290	MST (mean survival number of days) [2, 3]: 15.8 ± 0.84 days; T/C (%) (MST of treatment group/MST of control x 100) [2, 3]: 128%; MST (mean survival number of days) [2, 4]: 17.8 ± 1.92 days; T/C (%) (MST of treatment group/MST of control x 100) [2, 4]: 145%; MST (mean survival number of days) [2, 5]: >26.4 ± 18.82 days; T/C (%) (MST of treatment group/MST of control x 100) [2, 5]: >245%; MST (mean survival number of days) [2, 6]: >42.2 ± 24.38 days; T/C (%) (MST of treatment group/MST of control x 100) [2, 6]: >343%; MST (mean survival number of days) [2, 7]: >47.2 ± 18.90 days; T/C (%) (MST of treatment group/MST of control x 100) [2, 7]: >384%
O=C1c2c(c3c4cccc(O)c4n([C@@H]4O[C@H](CO)[C@@H](O)[C@H](O)[C@H]4O)c3c3[nH]c4c(O)cccc4c23)C(=O)N1NC(=O)C(F)(F)F [Example 13]	220	
CO[C@H]1[C@H](O)[C@@H](O)[C@H](n2c3c(Cl)cccc3c3c4c(c5c6cccc(Cl)c6[nH]c5c32)C(=O)N(N)C4=O)O[C@@H]1CO [Example 4, 6-N-aminorebeccamycin]	96	
NC(=O)CNN1C(=O)c2c(c3c4cccc(O)c4n([C@@H]4O[C@H](CO)[C@@H](O)[C@H](O)[C@H]4O)c3c3[nH]c4c(O)cccc4c23)C1=O [Example 14]	< 27	
CC(C)(C)OC(=O)NN1C(=O)c2c(c3c4cccc(O)c4n([C@@H]4O[C@H](CO)[C@@H](O)[C@H](O)[C@H]4O)c3c3[nH]c4c(O)cccc4c23)C1=O [Example 27]	27	
NC(=O)C(=O)NN1C(=O)c2c(c3c4cccc(O)c4n([C@@H]4O[C@H](CO)[C@@H](O)[C@H](O)[C@H]4O)c3c3[nH]c4c(O)cccc4c23)C1=O [Example 17]	44	
CC1(C)OC[C@@H]([C@@H](O)C(=O)NN2C(=O)c3c(c4c5cccc(O)c5n([C@@H]5O[C@H](CO)[C@@H](O)[C@H](O)[C@H]5O)c4c4[nH]c5c(O)cccc5c34)C2=O)O1 [Example 31]	11	
NC(=O)NN1C(=O)c2c(c3c4cccc(O)c4n([C@@H]4O[C@H](CO)[C@@H](O)[C@H](O)[C@H]4O)c3c3[nH]c4c(O)cccc4c23)C1=O [Example 9]	28	
O=C(NN1C(=O)c2c(c3c4cccc(O)c4n([C@@H]4O[C@H](CO)[C@@H](O)[C@H](O)[C@H]4O)c3c3[nH]c4c(O)cccc4c23)C1=O)c1ccccc1 [Example 34]	19	
CCC(=O)NN1C(=O)c2c(c3c4cccc(O)c4n([C@@H]4O[C@H](CO)[C@@H](O)[C@H](O)[C@H]4O)c3c3[nH]c4c(O)cccc4c23)C1=O [Example 12]	42	
O=C(Nc1ccccc1)NN1C(=O)c2c(c3c4cccc(O)c4n([C@@H]4O[C@H](CO)[C@@H](O)[C@H](O)[C@H]4O)c3c3[nH]c4c(O)cccc4c23)C1=O [Example 33]	110	
O=C1c2c(c3c4cccc(O)c4n([C@@H]4O[C@H](CO)[C@@H](O)[C@H](O)[C@H]4O)c3c3[nH]c4c(O)cccc4c23)C(=O)N1N(Cc1ccccc1)Cc1ccccc1 [Example 29]	5	
